Laboratory results published in patent publication US20230303604A1, “METALLIC TRANS-(N-HETEROCYCLIC CARBENE)-AMINE-PLATINUM COMPLEXES AND USES THEREOF FOR TREATING CANCER” (INSTITUT CURIE, priority 2020, published 2023).

How the values were obtained:
Type in all cases: cell-based
A2780 cell lines = assay: Radiosensitization assay on A2780; conditions: A2780, 1 μM complex, 1 day pretreatment, D10 six days post-irradiation
Protocol: (§1) For one day or 10 min pretreatment, cells were seeded at a number allowing 5 doubling populations growth without reaching confluence in the untreated samples. They were then pretreated during the time indicated at the indicated NHC-Pt concentrations, irradiated at 1, 2, 3 and 4 Gy for A2780 cell lines and 2. 4. 6 and 8 Gy for H1299 and allow growing until 6 days. IC5 cells were irradiated at 1, 2, 3, 4 and 5 Gy, CC11^+ were irradiated at 2, 3, 4, 5 and 6 Gy and allow growing until 7 days, CRL1550 were irradiated at 2, 4, 6 and 8 Gy and allow growing until 5 days. CRL79200 were irradiated at 1, 2, 3 and 4 Gy and allow growing until 15 days. For 4 days pretreatment, cells were seeding in the conditions of cell cytotoxicity determination, trypsinised, seeded at a number allowing 5 doubling population growth without reaching confluence in the untreated samples and treated one day before irradiation. Irradiation is using GSR D1 irradiator (gamma-ray, 662 keV). The cells were left to grow for 6 days to allow at least 5 population doublings. Cell count of each well is taken and a graph is plotted with the percentage survival of each treatment of cells with its control (0 Gy). […]
(§2) All the complexes were first evaluated for their radiosensitizing properties on A2780 and H1299 cell lines. […] The D10 doses were evaluated as the doses allowing 10% survival six days post-irradiation. […]

[1] = system: A2780cis (A2780/DDP) cells; assay: Cell proliferation evaluation on cisplatin-resistant A2780cis; conditions: for ability to counteract the cisplatin resistance: A780cis cell line
Protocol: (§3) Cell culture. The A2780 ovarian carcinoma cell lines were purchased from ECACC (Salisbury, UK) and were grown in complete RPMI medium supplemented with 10% fetal calf serum, in the presence of penicillin, streptomycin. The resistance of A2780/DDP cells to cisplatin was maintained by monthly treatment with 1 μM cisplatin for 4 days. H1299 Non Small Cell Lung Carcinoma (ATCC® CRL-5803™) and were grown in RPMI medium supplemented with 10% fetal calf serum, 1% HEPES, 1% Sodium Pyruvate in the presence of penicillin and streptomycin. In addition, four cervical cancerous cell lines, already resistant to some conventional chemotherapy (Gemcitabin, methothrexate, vinorelbin and/or cisplatin) were chosen: IC5 (from Institut Curie), CRL1550 (ATCC® CRL1550™), CC11^+ (Cellosaurus CVCL_DF82) and CRL7920 (ATCC® CRL7920™). They were grown in complete RPMI medium supplemented with 10% fetal calf serum, in the presence of penicillin, streptomycin.
Cell proliferation evaluation. Cells were treated with various concentrations of NHC-Pt, at 37° C. under humidity and 5% CO2 conditions for 96 h. Cellular growth was quantified using the Moxi Z Mini automated cell counter (Orflox technology). CellTiter Glo® Luminescent Cell Viability Assay following the kit instructions (Promega) was also used. But since doses that inhibit 50% of cell proliferation (IC50) not always correlated to the number of cells, as previously observed (Uehara, T., Mitsuhashi, A., Tsuruoka, N., and Shozu, M. (2015) Metformin potentiates the anticancer effects of cisplatin under normoxic conditions in vitro, Oncology reports 33, 744-750), cell counting was privileged. […]

H1299 cell lines = assay: Radiosensitization assay on H1299; conditions: H1299, 1 μM complex, 1 day pretreatment, D10 six days post-irradiation
Protocol: as §1, §2

A2780 cells = assay: Immunofluorescence assay, DNA damage repair kinetics (γ-H2AX and 53BP1 foci); conditions: A2780, 2 Gy, 2 h and 6 h post irradiation, 1 day pre-treatment
Protocol: Immunofluorescence Assays. A2780 cells were plated on coverslips in 6-well plates. After 1 day of incubation with the various NHC-Pt at their RS doses, cells were irradiated at 2 Gys, incubated the time indicated post-irradiation, washed with phosphate-buffered saline (PBS), then fixed 10 minutes in 4% formaldehyde. After a wash with PBS, cells were permeabilised 2 min using 0.5% Triton X-100 and is washed with PBS. The cells were incubated in blocking buffer (5% bovine serum albumin in PBS) for 30 min before being incubated for 1 h with the primary mouse monoclonal antibody against g-H2AX (milipore) or 53BP1. After three washes with PBS, the cells were incubated for an additional 1 h with the Alexa Fluor 488-conjugated secondary antibody (Alexa Fluor 488 goat anti-mouse IgG; Life Technologies). Nuclei were labeled using DAPI and the coverslides were mounted with Vectashield™. Acquisitions were performed on a3D-dev or 3D-SIM in the microscopy platform from Institut Curie. ImageJ software ([…]) was used to project the z-stacks and count the number of g-H2AX or 53BP1 spots as well as their intensity and size in nuclei. […]
The inventors analyzed, by immunofluorescence, the γ-H2AX and 53BP1 foci, γ-H2AX being a DNA damage sensor and 53BP1 being a DNA repair sensor at different time post-irradiation (0.5-24 h).

[2] = system: cervical cancerous cell lines (IC5, CC11^+, CRL1550, CRL7920); assay: Cell proliferation evaluation, statements over the cervical cancerous cell lines; conditions: three cervical cancerous cell lines
Protocol: as §3
(§4) Cell proliferation evaluation. Cells were treated with various concentrations of NHC-Pt, at 37° C. under humidity and 5% CO2 conditions for 96 h. Cellular growth was quantified using the Moxi Z Mini automated cell counter (Orflox technology). CellTiter Glo® Luminescent Cell Viability Assay following the kit instructions (Promega) was also used. […]

[3] = system: A2780 ovarian carcinoma cell lines; assay: Cell proliferation evaluation (cell counting) on A2780; conditions: A2780, 4 days (96 h) treatment
Protocol: as §3, §4

[4] = system: CRL1550 cervical cancerous cell line; assay: Cell proliferation evaluation on CRL1550; conditions: CRL1550, 4 days treatment
Protocol: as §3, §4

[5] = system: IC5 cervical cancerous cell line; assay: Cell proliferation evaluation on IC5; conditions: IC5, 4 days treatment
Protocol: as §3, §4

[6] = system: CC11^+ cervical cancerous cell line; assay: Cell proliferation evaluation on CC11+; conditions: 4 days treatment
Protocol: as §3, §4

Compound	radiosensitizing properties at 1 μM (A2780 cell lines)	ability to counteract the cisplatin resistance [1]	radiosensitizing properties at 1 μM (H1299 cell lines)	cytotoxic activity as compared to C2 [2]	other results
CN1C=CN(CCCCCCN2C=CN(C)[CH]2[Pt]([NH2])([I])[I])[CH]1[Pt]([NH2])([I])[I] (stereo not drawn) [C2, [1,1′-(hexane-1,6-diyl)bis(3-methylimidazol-2-ylidene)]bis[trans-diiodo(ammonia)platinum]]	significant radiosensitizing properties	able to counteract the cisplatin resistance	significant radiosensitizing properties	–	DNA damage repair after irradiation (γ-H2AX foci) (A2780 cells): induced a delay in the DNA damage repair
CN1C=CN(CCCCCCN2C=CN(C)[CH]2[Pt]([I])([I])[N]2CCOCC2)[CH]1[Pt]([I])([I])[N]1CCOCC1 (stereo not drawn) [C7, [1,1′-(hexane-1,6-diyl)bis(3-methylimidazol-2-ylidene)]bis[trans-diiodo(N-morpholine)platinum]]	–	–	–	improved cytotoxic activity	–
OCCN1C=CN(CCCCCCN2C=CN(CCO)[CH]2[Pt]([I])([I])[NH]C2CCCCC2)[CH]1[Pt]([I])([I])[NH]C1CCCCC1 (stereo not drawn) [C9, {1,1′-(hexane-1,6-diyl)bis[3-(2-hydroxethyl)imidazol-2-ylidene]}bis{[trans-diiodo(N-cyclohexylamine)platinum]}]	–	–	–	improved cytotoxic activity	–
N.N.[Cl][Pt][Cl] [Cisplatin, cisplatin]	–	–	–	–	IC50 [3]: 300 nM; IC50 [4]: 390 ± 40 nM; IC50 ([1]; cisplatin-resistant cell line, 96 h, read-out: IC50 in A780cis cell line): 6 µM; IC50 [5]: 490 ± 50 nM; IC50 [6]: 6 nM
CN1C=CN(C)[CH]1[Pt]([NH2])([I])[I] [MS113, trans-Diiodo(ammonia)(1,3-dimethylimidazol-2-ylidene)platinum]	–	it is not the case	–	–	–
CN1C=CN(C)[CH]1[Pt]([I])([I])[NH]C1CCCCC1 [MS140, trans-Diiodo(N-cyclohexylamine)(1,3-dimethylimidazol-2-ylidene)platinum]	significant radiosensitizing properties	–	significant radiosensitizing properties	–	–
